System: Japanese medaka (Oryzias latipes)
Assay: Fish short-term reproduction assay (FSTRA, OECD TG229), 21-day flow-through exposure
Conditions: for Fertility rate (%) / Mortality (%) Female / Mortality (%) Male / Number of fertilized eggs / Number of total eggs / SSC Female / SSC Male / VTG (ng/mg of liver) Female / VTG (ng/mg of liver) Male: 21 days; for GSI Female / GSI Male / HSI Female / HSI Male / Length Female / Length Male / Weight Female / Weight Male: at completion of exposure; for effect on fecundity (number of total eggs), in words: within the test concentrations
Method in brief: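 Run to OECD TG229: mature NIES-R medaka pairs (3♂/3♀ per vessel, 4 vessels per treatment plus dilution water control) were dosed by continuous flow-through for 21 days. Test concentrations were spaced 2- to 5-fold. Daily spawned eggs were counted under the microscope for fertilized versus unfertilized.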

C[C@]12CCC(=O)C=C1CC[C@@H]1[C@@H]2CC[C@@]2(C)[C@H]1CC[C@]2(C)O [MT, 17α‐methyltestosterone]
effect on female hepatic VTG, in words (21-day exposure): decreased
LOEC on female SSC (papillary process formation on anal fin) (21-day exposure, measured conc.): 20.1 ng/L
Fertility rate (%) (measured conc. 20.1 ng/L): 89%
Mortality (%) Female (measured conc. 20.1 ng/L): 0%
Mortality (%) Male (measured conc. 20.1 ng/L): 0%
Number of fertilized eggs (measured conc. 20.1 ng/L): 23
Number of total eggs (measured conc. 20.1 ng/L): 25 ± 4.6 /female/day
SSC Female (measured conc. 20.1 ng/L): 28 ± 2.0
SSC Male (measured conc. 20.1 ng/L): 104 ± 12
VTG (ng/mg of liver) Female (measured conc. 20.1 ng/L): 1,650 ± 134 ng/mg of liver
VTG (ng/mg of liver) Male (measured conc. 20.1 ng/L): 1.5 ± 0.3 ng/mg of liver
GSI Female (measured conc. 20.1 ng/L): 13.5%
GSI Male (measured conc. 20.1 ng/L): 0.68%
HSI Female (measured conc. 20.1 ng/L): 4.8%
HSI Male (measured conc. 20.1 ng/L): 2.5%
Length Female (measured conc. 20.1 ng/L): 36.1 mm
Length Male (measured conc. 20.1 ng/L): 37.3 mm
Weight Female (measured conc. 20.1 ng/L): 592 mg
Weight Male (measured conc. 20.1 ng/L): 546 mg
Fertility rate (%) (measured conc. 77.4 ng/L): 80%
Mortality (%) Female (measured conc. 77.4 ng/L): 0%
Mortality (%) Male (measured conc. 77.4 ng/L): 0%
Number of fertilized eggs (measured conc. 77.4 ng/L): 8.1
Number of total eggs (measured conc. 77.4 ng/L): 10 ± 2.9 /female/day
SSC Female (measured conc. 77.4 ng/L): 78 ± 7.9
SSC Male (measured conc. 77.4 ng/L): 106 ± 7.6
VTG (ng/mg of liver) Female (measured conc. 77.4 ng/L): 1,080 ± 391 ng/mg of liver
VTG (ng/mg of liver) Male (measured conc. 77.4 ng/L): 2.1 ± 0.3 ng/mg of liver
GSI Female (measured conc. 77.4 ng/L): 18.6%
GSI Male (measured conc. 77.4 ng/L): 0.78%
HSI Female (measured conc. 77.4 ng/L): 4.4%
HSI Male (measured conc. 77.4 ng/L): 2.4%
Length Female (measured conc. 77.4 ng/L): 36.7 mm
Length Male (measured conc. 77.4 ng/L): 38.3 mm
Weight Female (measured conc. 77.4 ng/L): 694 mg
Weight Male (measured conc. 77.4 ng/L): 603 mg
Fertility rate (%) (measured conc. 300 ng/L): 79%
Mortality (%) Female (measured conc. 300 ng/L): 8.3%
Mortality (%) Male (measured conc. 300 ng/L): 0%
Number of fertilized eggs (measured conc. 300 ng/L): 1.4
Number of total eggs (measured conc. 300 ng/L): 1.8 ± 1.1 /female/day
SSC Female (measured conc. 300 ng/L): 85 ± 11
SSC Male (measured conc. 300 ng/L): 112 ± 7.1
VTG (ng/mg of liver) Female (measured conc. 300 ng/L): 320 ± 266 ng/mg of liver
VTG (ng/mg of liver) Male (measured conc. 300 ng/L): 1.9 ± 0.6 ng/mg of liver
GSI Female (measured conc. 300 ng/L): 12.6%
GSI Male (measured conc. 300 ng/L): 0.68%
HSI Female (measured conc. 300 ng/L): 4.2%
HSI Male (measured conc. 300 ng/L): 2.5%
Length Female (measured conc. 300 ng/L): 37.0 mm
Length Male (measured conc. 300 ng/L): 37.5 mm
Weight Female (measured conc. 300 ng/L): 654 mg
Weight Male (measured conc. 300 ng/L): 561 mg
effect on fecundity (number of total eggs), in words (21-day exposure): significantly reduced

C#C[C@]1(O)CC[C@H]2[C@@H]3CCc4cc(O)ccc4[C@H]3CC[C@@]21C [EE2, 17α‐Ethynylestradiol]
LOEC on VTG induction in male (in molarity) (hepatic VTG, 21-day exposure): 60 pM
LOEC for VTG induction in males (hepatic VTG, 21-day exposure, measured conc.): 17.8 ng/L
effect on male GSI, in words (highest concentration, 21-day exposure): significant decreasing
LOEC on male VTG induction: times smaller than the LOEC for CMP (in vivo): more than 8,000 times
Fertility rate (%) (measured conc. 17.8 ng/L): 84%
Mortality (%) Female (measured conc. 17.8 ng/L): 0%
Mortality (%) Male (measured conc. 17.8 ng/L): 0%
Number of fertilized eggs (measured conc. 17.8 ng/L): 15
Number of total eggs (measured conc. 17.8 ng/L): 18 ± 2.3 /female/day
SSC Female (measured conc. 17.8 ng/L): 0 ± 0
SSC Male (measured conc. 17.8 ng/L): 90 ± 8.1
VTG (ng/mg of liver) Female (measured conc. 17.8 ng/L): 2,170 ± 223 ng/mg of liver
VTG (ng/mg of liver) Male (measured conc. 17.8 ng/L): 68.3 ± 80.4 ng/mg of liver
GSI Female (measured conc. 17.8 ng/L): 10.0%
GSI Male (measured conc. 17.8 ng/L): 0.75%
HSI Female (measured conc. 17.8 ng/L): 4.2%
HSI Male (measured conc. 17.8 ng/L): 2.3%
Length Female (measured conc. 17.8 ng/L): 35.4 mm
Length Male (measured conc. 17.8 ng/L): 35.9 mm
Weight Female (measured conc. 17.8 ng/L): 516 mg
Weight Male (measured conc. 17.8 ng/L): 531 mg
Fertility rate (%) (measured conc. 84.9 ng/L): 88%
Mortality (%) Female (measured conc. 84.9 ng/L): 0%
Mortality (%) Male (measured conc. 84.9 ng/L): 0%
Number of fertilized eggs (measured conc. 84.9 ng/L): 15
Number of total eggs (measured conc. 84.9 ng/L): 17 ± 4.9 /female/day
SSC Female (measured conc. 84.9 ng/L): 0 ± 0
SSC Male (measured conc. 84.9 ng/L): 88 ± 5.7
VTG (ng/mg of liver) Female (measured conc. 84.9 ng/L): 3,840 ± 1,370 ng/mg of liver
VTG (ng/mg of liver) Male (measured conc. 84.9 ng/L): 10,900 ± 3,840 ng/mg of liver
GSI Female (measured conc. 84.9 ng/L): 9.5%
GSI Male (measured conc. 84.9 ng/L): 0.60%
HSI Female (measured conc. 84.9 ng/L): 3.7%
HSI Male (measured conc. 84.9 ng/L): 2.7%
Length Female (measured conc. 84.9 ng/L): 35.8 mm
Length Male (measured conc. 84.9 ng/L): 36.3 mm
Weight Female (measured conc. 84.9 ng/L): 498 mg
Weight Male (measured conc. 84.9 ng/L): 548 mg
Fertility rate (%) (measured conc. 424 ng/L): 73%
Mortality (%) Female (measured conc. 424 ng/L): 8%
Mortality (%) Male (measured conc. 424 ng/L): 33%
Number of fertilized eggs (measured conc. 424 ng/L): 8
Number of total eggs (measured conc. 424 ng/L): 10 ± 2.8 /female/day
SSC Female (measured conc. 424 ng/L): 0 ± 0
SSC Male (measured conc. 424 ng/L): 86 ± 6.7
VTG (ng/mg of liver) Female (measured conc. 424 ng/L): 15,100 ± 4,290 ng/mg of liver
VTG (ng/mg of liver) Male (measured conc. 424 ng/L): 23,900 ± 3,760 ng/mg of liver
GSI Female (measured conc. 424 ng/L): 10.4%
GSI Male (measured conc. 424 ng/L): 0.33%
HSI Female (measured conc. 424 ng/L): 3.8%
HSI Male (measured conc. 424 ng/L): 3.4%
Length Female (measured conc. 424 ng/L): 35.3 mm
Length Male (measured conc. 424 ng/L): 35.1 mm
Weight Female (measured conc. 424 ng/L): 507 mg
Weight Male (measured conc. 424 ng/L): 531 mg
effect on fecundity (number of total eggs), in words (21-day exposure): significant decrease

Reference: publication PMC8359193, “Summary of reference chemicals evaluated by the fish short‐term reproduction assay, OECD TG229, using Japanese Medaka, Oryzias latipes” (Journal of Applied Toxicology, 2021)
